One assay concerns the target T1, F508del (Homo sapiens, UniProt P13569, DEL508-508).
T1 construct: expressed in transfected cells
The assay can be described thus: Protocol 2: FRET membrane potential optical assay (VIPR), identification of correction compounds. To be noted: F508del CFTR modulator activity; compounds of Table 1; read-out: EC30. The assay is classed as cell-based. In a few lines: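 NIH3T3 mouse fibroblasts stably expressing F508del-CFTR incubated with compound 16 h at 37 °C in serum-free medium, then loaded with CC2-DMPE/DiSBAC2(3) FRET dyes. Channel activated with 10 μM forskolin plus 20 μM genistein in Cl⁻-free (gluconate) bath; depolarisation from Cl⁻ efflux read on VIPR II.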
T1 sequence (P13569 with tags, fused parts or gaps DEL508-508): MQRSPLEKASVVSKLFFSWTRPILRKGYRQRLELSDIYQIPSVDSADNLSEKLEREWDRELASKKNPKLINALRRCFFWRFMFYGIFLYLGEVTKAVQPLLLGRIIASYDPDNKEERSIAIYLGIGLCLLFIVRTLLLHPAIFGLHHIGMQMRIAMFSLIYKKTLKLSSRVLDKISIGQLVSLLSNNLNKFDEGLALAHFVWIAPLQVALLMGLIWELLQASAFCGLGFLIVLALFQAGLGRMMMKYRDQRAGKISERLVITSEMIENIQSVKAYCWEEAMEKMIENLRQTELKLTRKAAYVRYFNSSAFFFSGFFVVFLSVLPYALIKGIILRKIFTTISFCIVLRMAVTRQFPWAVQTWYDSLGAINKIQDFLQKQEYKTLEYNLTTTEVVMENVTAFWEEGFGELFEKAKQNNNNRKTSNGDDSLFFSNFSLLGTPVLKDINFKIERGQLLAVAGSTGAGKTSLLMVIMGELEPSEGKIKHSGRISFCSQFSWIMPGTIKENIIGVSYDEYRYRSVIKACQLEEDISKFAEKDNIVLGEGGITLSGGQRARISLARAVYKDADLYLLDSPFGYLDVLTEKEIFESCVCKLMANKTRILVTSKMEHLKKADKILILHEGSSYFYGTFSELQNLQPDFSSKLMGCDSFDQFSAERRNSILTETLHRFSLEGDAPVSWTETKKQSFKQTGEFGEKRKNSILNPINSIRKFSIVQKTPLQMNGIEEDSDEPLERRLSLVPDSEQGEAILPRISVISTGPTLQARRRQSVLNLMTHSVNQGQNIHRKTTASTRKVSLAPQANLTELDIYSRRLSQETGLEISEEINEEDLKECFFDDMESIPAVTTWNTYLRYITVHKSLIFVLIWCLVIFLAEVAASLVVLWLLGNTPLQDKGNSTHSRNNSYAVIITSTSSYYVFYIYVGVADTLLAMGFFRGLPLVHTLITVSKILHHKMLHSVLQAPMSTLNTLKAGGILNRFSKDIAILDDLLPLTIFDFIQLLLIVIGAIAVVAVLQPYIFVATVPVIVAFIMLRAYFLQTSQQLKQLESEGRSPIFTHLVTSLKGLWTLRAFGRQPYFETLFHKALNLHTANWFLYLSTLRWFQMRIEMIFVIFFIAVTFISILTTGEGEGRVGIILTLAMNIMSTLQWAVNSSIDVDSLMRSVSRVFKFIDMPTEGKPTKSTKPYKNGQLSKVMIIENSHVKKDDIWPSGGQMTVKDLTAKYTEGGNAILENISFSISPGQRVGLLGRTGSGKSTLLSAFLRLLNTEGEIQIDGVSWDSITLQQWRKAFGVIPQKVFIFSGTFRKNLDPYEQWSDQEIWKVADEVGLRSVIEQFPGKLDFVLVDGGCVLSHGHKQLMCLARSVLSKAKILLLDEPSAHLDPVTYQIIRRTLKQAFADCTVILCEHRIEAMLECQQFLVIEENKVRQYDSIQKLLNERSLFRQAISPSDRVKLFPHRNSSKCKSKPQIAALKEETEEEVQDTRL
Regarding `CC1CN(c2ncccc2C(=O)NS(=O)(=O)c2cccc(OCc3ccc(Cl)cc3F)n2)C(C)(C)C1` (centres unmarked) [Compound 2182, N—[[6-[(4-chloro-2-fluoro-phenyl)methoxy]-2-pyridyl]sulfonyl]-2-(2,2,4-trimethylpyrrolidin-1-yl)pyridine-3-carboxamide], the EC30 is less than 3 µM.
Consider `CC(C)(C)c1ccc(C(=O)NS(=O)(=O)c2cccc(N)n2)c(N2CCC(C3CCOCC3)C2(C)C)n1` (centres unmarked) [Compound 2139], for which the EC30 is less than 3 µM.
On the same count and under the same terms, the result for `CC1CN(c2ncccc2C(=O)NS(=O)(=O)c2cccc(OCCc3ccccc3F)n2)C(C)(C)C1` (centres unmarked) [Compound 2625, N—[[6-[2-(2-fluorophenyl)ethoxy]-2-pyridyl]sulfonyl]-2-(2,2,4-trimethylpyrrolidin-1-yl)pyridine-3-carboxamide] reads less than 3 µM; that for `CC1CN(c2ncccc2C(=O)NS(=O)(=O)c2cccc(NC3CC3)n2)C(C)(C)C1` (centres unmarked) [Compound 2574, N—[[6-(cyclopropylamino)-2-pyridyl]sulfonyl]-2-(2,2,4-trimethylpyrrolidin-1-yl)pyridine-3-carboxamide], 3 to 10 µM.
Same read-out and setting: as for `COc1cccc(CNc2cccc(S(=O)(=O)NC(=O)c3cccnc3N3CC(C)CC3(C)C)n2)c1` (centres unmarked) [Compound 2168, N—[[6-[(3-methoxyphenyl)methylamino]-2-pyridyl]sulfonyl]-2-(2,2,4-trimethylpyrrolidin-1-yl)pyridine-3-carboxamide], the figure is less than 3 µM; as for `CC(C)COc1cc(F)cc(-c2nc(N3C[C@@H](C)CC3(C)C)c(C(=O)NS(=O)(=O)c3cccc(N)n3)cc2F)c1` [Compound 2473, N-[(6-amino-2-pyridyl)sulfonyl]-5-fluoro-6-(3-fluoro-5-isobutoxy-phenyl)-2-[(4S)-2,2,4-trimethylpyrrolidin-1-yl]pyridine-3-carboxamide], less than 3 µM.
On the same count and under the same terms, the result for `CCCN(CC1CC1)c1cccc(S(=O)(=O)NC(=O)c2cccnc2N2CC(C)CC2(C)C)n1` (centres unmarked) [Compound 2723] reads less than 3 µM; that for `C[C@@H]1CN(c2nc(-c3cncc4ccccc34)ccc2C(=O)NS(=O)(=O)c2cccnc2N)C(C)(C)C1` [Compound 2418, N-[(2-amino-3-pyridyl)sulfonyl]-6-(4-isoquinolyl)-2-[(4S)-2,2,4-trimethylpyrrolidin-1-yl]pyridine-3-carboxamide], less than 3 µM.
As to `CCN(CC)c1cc(C)cc(-c2ccc(C(=O)NS(=O)(=O)c3cccc(N)n3)c(N3C[C@@H](C)CC3(C)C)n2)n1` [Compound 2002, N-[(6-amino-2-pyridyl)sulfonyl]-6-[6-(diethylamino)-4-methyl-2-pyridyl]-2-[(4S)-2,2,4-trimethylpyrrolidin-1-yl]pyridine-3-carboxamide], the EC30 was less than 3 µM.
Turning to `C[C@@H]1CN(c2ncccc2C(=O)NS(=O)(=O)N2CC[C@@H](NCCCc3ccc(Cl)cc3)C2)C(C)(C)C1` [Compound 2710], the EC30 fell in the range of 3 to 10 µM.
As to `Cc1cccc(-c2ccc(C(=O)NS(=O)(=O)N3CC[C@H](N)C3)c(N3C[C@@H](C)CC3(C)C)n2)c1` [Compound 2339, N-[(3S)-3-aminopyrrolidin-1-yl]sulfonyl-6-(m-tolyl)-2-[(4S)-2,2,4-trimethylpyrrolidin-1-yl]pyridine-3-carboxamide], the concentration for an effect of 30% (EC30) was less than 3 µM.
In the case of `Cc1cccc(C)c1Oc1nc(-c2cc(F)cc(OCC(C)C)c2)ccc1C(=O)NS(=O)(=O)c1ccc(O)c(N)n1` [Compound 2331, N-[(6-amino-5-hydroxy-2-pyridyl)sulfonyl]-2-(2,6-dimethylphenoxy)-6-(3-fluoro-5-isobutoxy-phenyl)pyridine-3-carboxamide], the EC30 is less than 3 µM.

Staying with this assay, now noted: Table 3; compounds of Table 1 as modulators of CFTR activity; protocol not stated.
Regarding `Cc1cc(C)c(Oc2ccc(C(C)(C)C)nc2C(=O)NS(=O)(=O)c2cccc(N)c2)c(C)c1` [Compound 106, N-(3-aminophenyl)sulfonyl-6-tert-butyl-3-(2,4,6-trimethylphenoxy)pyridine-2-carboxamide], the EC30 result is given as “+++ (“+++” means <3 uM)”.
For `Cc1cc(C)c(Oc2nc(-c3ccc(Cl)cc3)ccc2C(=O)NS(=O)(=O)c2cccc(N)n2)c(C)c1` [Compound 234, N-[(6-amino-2-pyridyl)sulfonyl]-6-(4-chlorophenyl)-2-(2,4,6-trimethylphenoxy)pyridine-3-carboxamide], the EC30 result is on record as “+++ (“+++” means <3 uM)”.
For the compound `Cc1cc(C)c(Oc2nc(-c3ccc(F)cc3)ccc2C(=O)NS(=O)(=O)c2ccc[nH]c2=O)c(C)c1` [Compound 561, 6-(4-fluorophenyl)-N-[(2-oxo-1H-pyridin-3-yl)sulfonyl]-2-(2,4,6-trimethylphenoxy)pyridine-3-carboxamide], the EC30 entry is “+++ (“+++” means <3 uM)”.
As to `Cc1cc(C)c(Oc2nc(-c3cccc(C)n3)ccc2C(=O)NS(=O)(=O)c2cccc(N)n2)c(C)c1` [Compound 730, N-[(6-amino-2-pyridyl)sulfonyl]-6-(6-methyl-2-pyridyl)-2-(2,4,6-trimethylphenoxy)pyridine-3-carboxamide], the EC30 result was “+++ (“+++” means <3 uM)”.
On to `Cc1cccc(C)c1Cn1nc(C(C)(C)C)cc1C(=O)NS(=O)(=O)c1ccccc1` [Compound 257, N-(benzenesulfonyl)-5-tert-butyl-2-[(2,6-dimethylphenyl)methyl]pyrazole-3-carboxamide], for which the EC30 result is given as “+++ (“+++” means <3 uM)”.
For the compound `Cc1cc(C)c(Oc2nc(C3=CCC(C)(C)CC3)ccc2C(=O)NS(=O)(=O)c2ccc[nH]c2=O)c(C)c1` [Compound 573, 6-(4,4-dimethylcyclohexen-1-yl)-N-[(2-oxo-1H-pyridin-3-yl)sulfonyl]-2-(2,4,6-trimethylphenoxy)pyridine-3-carboxamide], the EC30 result is recorded as “+++ (“+++” means <3 uM)”.
As to `Cc1cccc(S(=O)(=O)NC(=O)c2cc(C(C)(C)C)nn2Cc2c(C)cc(C)cc2C)c1` [Compound 80, 5-tert-butyl-N-(m-tolylsulfonyl)-2-[(2,4,6-trimethylphenyl)methyl]pyrazole-3-carboxamide], the EC30 entry is listed as “+++ (“+++” means <3 uM)”.
The same measure, in the same setting: as for `CCCN(CC1CC1)c1nc(-c2ccc(OC(C)C)nc2)ccc1C(=O)NS(=O)(=O)c1cccc(N)n1` [Compound 500, N-[(6-amino-2-pyridyl)sulfonyl]-2-[cyclopropylmethyl(propyl)amino]-6-(6-isopropoxy-3-pyridyl)pyridine-3-carboxamide], the entry is “+++ (“+++” means <3 uM)”; as for `COc1ncccc1S(=O)(=O)NC(=O)C1(C)c2ccccc2CN1Cc1c(C)cc(C)cc1C` (centres unmarked) [Compound 765, N-[(2-methoxy-3-pyridyl)sulfonyl]-1-methyl-2-[(2,4,6-trimethylphenyl)methyl]isoindoline-1-carboxamide], “++ (“++” means between 3 uM and 10 uM)”.
Still for that read-out and setting: the result for `Cc1cccc(-c2nc(C(C)(C)C)ccc2C(=O)NS(=O)(=O)c2cccc(N)c2)c1` [Compound 282, N-(3-aminophenyl)sulfonyl-6-tert-butyl-2-(m-tolyl)pyridine-3-carboxamide] reads “++ (“++” means between 3 uM and 10 uM)”.
For `Cc1cc(C)c(Oc2nn(C(C)(C)C)cc2C(=O)NS(=O)(=O)c2cccc(N)n2)c(C)c1` [Compound 256, N-[(6-amino-2-pyridyl)sulfonyl]-1-tert-butyl-3-(2,4,6-trimethylphenoxy)pyrazole-4-carboxamide], the EC30 result is on record as “+++ (“+++” means <3 uM)”.
As to `COc1ccc(F)c(-c2ccc(C(=O)NS(=O)(=O)c3ccc[nH]c3=O)c(Oc3c(C)cc(C)cc3C)n2)c1` [Compound 762, 6-(2-fluoro-5-methoxy-phenyl)-N-[(2-oxo-1H-pyridin-3-yl)sulfonyl]-2-(2,4,6-trimethylphenoxy)pyridine-3-carboxamide], the EC30 result is “++ (“++” means between 3 uM and 10 uM)”.
Turning to `Cc1cc(C)c(Cn2c(C(=O)NS(=O)(=O)c3cc(N)ccn3)cc3ccccc32)c(C)c1` [Compound 23, N-[(4-amino-2-pyridyl)sulfonyl]-1-[(2,4,6-trimethylphenyl)methyl]indole-2-carboxamide], the EC30 result is “++ (“++” means between 3 uM and 10 uM)”.
As to `Cc1ccc(-n2c(C(=O)NS(=O)(=O)c3cccc(N)n3)cc3cc(C)ccc32)cc1` [Compound 653, N-[(6-amino-2-pyridyl)sulfonyl]-5-methyl-1-(p-tolyl)indole-2-carboxamide], the EC30 result is reported as “+ (“+” means greater than 10 uM)”.
Consider `CC(C)Oc1ccc(-c2ccc(C(=O)NS(=O)(=O)c3cccc(N)n3)c(N3CCC(c4ccccc4)C3C)n2)cn1` (centres unmarked) [Compound 625, N-[(6-amino-2-pyridyl)sulfonyl]-6-(6-isopropoxy-3-pyridyl)-2-(2-methyl-3-phenyl-pyrrolidin-1-yl)pyridine-3-carboxamide], for which the EC30 entry is “+++ (“+++” means <3 uM)”.
As for `Cc1cc(C)c(Oc2nc(-c3ccc(C(F)(F)F)cc3)ccc2C(=O)NS(=O)(=O)c2cccc(N)n2)c(C)c1` [Compound 548, N-[(6-amino-2-pyridyl)sulfonyl]-6-[4-(trifluoromethyl)phenyl]-2-(2,4,6-trimethylphenoxy)pyridine-3-carboxamide], the EC30 result is “+++ (“+++” means <3 uM)”.
For `Cc1cc(C)c(Cc2cn(C(C)(C)C)nc2C(=O)NS(=O)(=O)c2cccc(N)c2)c(C)c1` [Compound 367], the EC30 result is recorded as “+++ (“+++” means <3 uM)”.
Turning to `Cc1ccc(-c2nc(C(C)(C)C)ccc2C(=O)NS(=O)(=O)c2cccc(N)c2)c(C)c1` [Compound 5, N-(3-aminophenyl)sulfonyl-6-tert-butyl-2-(2,4-dimethylphenyl)pyridine-3-carboxamide], the EC30 result was “++ (“++” means between 3 uM and 10 uM)”.
As to `COc1ccccc1S(=O)(=O)NC(=O)c1cc2ccccc2n1Cc1c(C)cc(C)cc1C` [Compound 183, N-(2-methoxyphenyl)sulfonyl-1-[(2,4,6-trimethylphenyl)methyl]indole-2-carboxamide], the EC30 entry is listed as “+++ (“+++” means <3 uM)”.
Regarding `CCCOc1cc(-c2ccc(C(=O)NS(=O)(=O)c3cccc(N)n3)c(Oc3c(C)cc(C)cc3C)n2)ccc1Cl` [Compound 535, N-[(6-amino-2-pyridyl)sulfonyl]-6-(4-chloro-3-propoxy-phenyl)-2-(2,4,6-trimethylphenoxy)pyridine-3-carboxamide], the EC30 result was “+++ (“+++” means <3 uM)”.

The values above are taken from US10758534B2 (Vertex Pharmaceuticals Incorporated, priority 2014, dated 2020).
